Legend:
MCF7 = conditions: breast cancer cells MCF7; cited from earlier work
T-47D cell = conditions: human derived breast cancer, compared with SK-BR-3; cited from earlier work
SK-BR-3 = conditions: breast cancer cell SK-BR-3; stated as known; cited from earlier work
SHSY5Y cell = experiment: Exposure of SHSY5Y neuroblastoma cells to stimulants: marker enzyme expression and extension of neuron projection; format: cell-based; conditions: a neuroblastoma from human
Description: The functions of (1) and (2) are different, but share the same properties in terms of extension of neuron projection. Therefore, cellular components necessary for these two intracellular alteration were specified experimentally by means of RNA interference method. As such, it was obtained that the component collection (3) necessary for the alteration from SHSY5Y to (1) are {JAK1, JAK3, ROR, and RET}. On the other hand, the component collection (4) necessary for the alteration from SHSY5Y cells to (2), are {NTRK1, EPHB2, INSR, RDGFRA, ROR and RET}. When comparing and calculation of intersection is done for (3) and (4), the intersection (5) was obtained to read {ROR and RET}. Next, the collection (6) {JAK1 and JAK3} by subtraction of (3)-(5) and the collection (5) were analyzed in terms of an intermolecular interaction, and the existence of a pathway of a molecular signals from (6) to (5) (FIG. 3A) was determined. Furthermore, the collection (7) which was obtained by the subtraction of (4)-(5), and the collection (5) were analyzed in terms of an intermolecular interaction, and the existence of a pathway of molecular signals from (7) to (5) (FIG. 3B) was further determined. The common components and pathway relating to the projection extension by retinoic acid (RA) and Nerve Growth Factor (NGF) are shown in FIG. 4.

What does the source list for COc1cccc2c1C(=O)c1c(O)c3c(c(O)c1C2=O)C[C@@](O)(C(=O)CO)C[C@@H]3O[C@H]1C[C@H](N)[C@H](O)[C@H](C)O1 [doxorubicin]?
DXR resistance (MCF7): having DXR resistance; DXR sensitivity (T-47D cell): same DXR sensitivity as the SK-BR-3; growth inhibition (SK-BR-3): subjected to growth inhibition

Which “expression of tyrosine hydroxylase” value (SHSY5Y cell) does the source give for “Nerve Growth Factor: Nerve Growth Factor (NGF), stimulant triggering neurite outgrowth in SHSY5Y cells” here?
The value was “tyrosine hydroxylase was expressed”.

And the “extension of neuron projection” value (SHSY5Y cell)?
Its value is “caused extension of neuron projection”.

And the “neuron cell type formed” value (SHSY5Y cell)?
The value was “forms dopaminergic neuron cells”.

Source: patent publication US20100210708A1, “COMPOUND PROFILING METHOD” (CYTOPATHFINDER, INC., priority 2007, published 2010)
